# Test results as given in patent publication US11691949B2, “Quinoline sulfonamide compounds and their use as antibacterial agents” (OTAGO INNOVATION LIMITED, priority 2017, dated 2023).
# Where two headings read alike, the source gives them in different places.
# Legend:
# Type in all cases: cell-based
# E. coli ATCC 10536 = experiment: MBC by Miles-Misra drop-plate method, E. coli; conditions: Escherichia coli
# Protocol: (§1) Antibacterial susceptibility testing was performed in triplicate (biological) by measuring minimum inhibitory concentrations (MICs) by broth microdilution in 96-well flat bottom microtiter plates (ThermoFisher Scientific, New Zealand). S. uberis ATCC 19436, S. aureus ATCC 6538, or E. coli ATCC 10596 cells grown overnight were diluted to an OD600 of approximately 0.025, so that the final concentration of cells in the MIC assay was approximately 5×10^5 cfu/mL in media as follows: S. uberis; Todd Hewitt Broth (THB), S. aureus; Tryptic Soy Broth (TSB) and Cation Adjusted Muller Hinton Broth (CAMHB), and E. coli; Lysogeny Borth (LB) and CAMHB, before being dispensed into microtiter wells. As required additional sterile Zinc Sulphate (Heptahydrate) was supplemented into the media, so the final concentration was 50 μM. Test compounds were added to starting wells and two-fold serial dilutions were undertaken to generate a range of inhibitor concentrations at a final volume of 200 μl. Media and test compound-free (untreated) controls were included in each microtiter plate in triplicate. After 24 h incubation at 37° C. and 200 rpm, the OD600 of wells were read using a Varioskan Flash plate reader (ThermoFisher Scientific, New Zealand). The MIC was reported as the lowest concentration of the test compound for which no growth occurred, as determined by OD600 readings. The minimum bactericidal concentration (MBC) was determined using the Miles-Misra drop-plate method to measure the viability of cells in response to test compound challenge.
# S. aureus ATCC 6538 [1] = experiment: MBC by Miles-Misra drop-plate method, S. aureus; conditions: Staphylococcus aureus
# Protocol: as §1
# S. uberis ATCC 19436 [2] = experiment: MBC by Miles-Misra drop-plate method, S. uberis; conditions: Streptococcus uberis
# Protocol: as §1
# S. aureus ATCC 6538 [3] = experiment: MIC by broth microdilution, S. aureus; conditions: Staphylococcus aureus
# How it was run: (§2)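 Media: TSB or CAMHB for S. aureus, LB or CAMHB for E. coli, with zinc sulphate to 50 μM final where required. Cells at ~5×10^5 cfu/mL met two-fold compound series; growth was scored by OD600 after 24 h shaking at 37° C.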
# E. coli ATCC 10596 = experiment: MIC by broth microdilution, E. coli; conditions: Escherichia coli
# How it was run: as §2
# S. uberis ATCC 19436 [4] = experiment: MIC by broth microdilution, S. uberis; conditions: Streptococcus uberis
# How it was run: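 This broth microdilution assay used S. uberis ATCC 19436 in Todd Hewitt Broth, with zinc sulphate heptahydrate added where required to a final 50 μM. Inhibitor concentration ranges came from two-fold serial dilutions in 96-well flat bottom plates at 200 μl. Approximately 5×10^5 cfu/mL cells were incubated for 24 h at 37° C. and 200 rpm. Wells were then read at OD600 on a Varioskan Flash reader.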
# [5] = ATCC10536, read-out: E. coli ATCC 10536 MBC, No Zinc
# [6] = ATCC10536, read-out: E. coli ATCC 10536 MBC, Zinc (50 μM)
# [7] = ATCC6538, read-out: S. aureus ATCC 6538 MBC, No Zinc
# [8] = ATCC6538, read-out: S. aureus ATCC 6538 MBC, Zinc (50 μM)
# [9] = ATCC19436, read-out: S. uberis ATCC 19436 MBC, No Zinc
# [10] = ATCC19436, read-out: S. uberis ATCC 19436 MBC, Zinc (50 μM)
# [11] = ATCC6538, read-out: S. aureus ATCC 6538 MIC, No Zinc
# [12] = ATCC6538, read-out: S. aureus ATCC 6538 MIC, Zinc (50 μM)
# [13] = ATCC 10536 / ATCC 10596, read-out: E. coli ATCC 10536 MIC, No Zinc
# [14] = ATCC 10536 / ATCC 10596, read-out: E. coli ATCC 10536 MIC, Zinc (50 μM)
# [15] = ATCC19436, read-out: S. uberis ATCC 19436 MIC, No Zinc
# [16] = ATCC19436, read-out: S. uberis ATCC 19436 MIC, Zinc (50 μM)
# [17] = ATCC10536, No Zinc, read-out: E. coli ATCC 10536 MBC
# [18] = ATCC10536, Zinc (50 μM), read-out: E. coli ATCC 10536 MBC
# [19] = ATCC6538, No Zinc, read-out: S. aureus ATCC 6538 MBC
# [20] = ATCC6538, Zinc (50 μM), read-out: S. aureus ATCC 6538 MBC
# [21] = ATCC19436, No Zinc, read-out: S. uberis ATCC 19436 MBC
# [22] = ATCC19436, Zinc (50 μM), read-out: S. uberis ATCC 19436 MBC
# [23] = ATCC6538, No Zinc, read-out: S. aureus ATCC 6538 MIC
# [24] = ATCC6538, Zinc (50 μM), read-out: S. aureus ATCC 6538 MIC
# [25] = ATCC 10536 / ATCC 10596, No Zinc, read-out: E. coli ATCC 10536 MIC
# [26] = ATCC 10536 / ATCC 10596, Zinc (50 μM), read-out: E. coli ATCC 10536 MIC
# [27] = ATCC19436, No Zinc, read-out: S. uberis ATCC 19436 MIC
# [28] = ATCC19436, Zinc (50 μM), read-out: S. uberis ATCC 19436 MIC
SMILES,MBC (E. coli ATCC 10536; [5]),MBC (E. coli ATCC 10536; [6]),MBC (S. aureus ATCC 6538 [1]; [7]),MBC (S. aureus ATCC 6538 [1]; [8]),MBC (S. uberis ATCC 19436 [2]; [9]),MBC (S. uberis ATCC 19436 [2]; [10]),MIC (S. aureus ATCC 6538 [3]; [11]),MIC (S. aureus ATCC 6538 [3]; [12]),MBC (E. coli ATCC 10536; [17]),MBC (E. coli ATCC 10536; [18]),MBC (S. aureus ATCC 6538 [1]; [19]),MBC (S. aureus ATCC 6538 [1]; [20]),MBC (S. uberis ATCC 19436 [2]; [21]),MBC (S. uberis ATCC 19436 [2]; [22]),MIC (S. aureus ATCC 6538 [3]; [23]),MIC (S. aureus ATCC 6538 [3]; [24]),MIC (E. coli ATCC 10596; [25]),MIC (E. coli ATCC 10596; [26]),MIC (S. uberis ATCC 19436 [4]; [27]),MIC (S. uberis ATCC 19436 [4]; [28]),also measured
"CN(C)CCCNC(=O)CNCc1ccc2cccc(NS(=O)(=O)c3ccc(C(F)(F)F)cc3)c2n1 [ZDR261, N-(3-(Dimethylamino)propyl)-2-(((8-((4-(trifluoromethyl)phenyl)sulfonamido)quinolin-2-yl)methyl)amino)acetamide di-trifluoroacetate]",> 256 µg/mL,> 256 µg/mL,128 µg/mL,64 µg/mL,16 µg/mL,16 µg/mL,32 µg/mL,32 µg/mL,–,–,–,–,–,–,–,–,–,–,–,–,MIC (E. coli ATCC 10596; [13]): 64 µg/mL; MIC (E. coli ATCC 10596; [14]): 64 µg/mL; MIC (S. uberis ATCC 19436 [4]; [15]): 32 µg/mL; MIC (S. uberis ATCC 19436 [4]; [16]): 16 µg/mL
"O=S(=O)(Nc1cccc2ccc(CNCCN3CCCCC3)nc12)c1ccc(C(F)(F)F)cc1 [ZDR111, N-(2-(((2-(Piperidin-1-yl)ethyl)amino)methyl)quinolin-8-yl)-4-(trifluoromethyl)benzenesulfonamide]",–,–,–,–,–,–,–,–,> 256 µg/mL,> 256 µg/mL,16 µg/mL,16 µg/mL,8 µg/mL,1 µg/mL,16 µg/mL,16 µg/mL,64 µg/mL,> 256 µg/mL,8 µg/mL,0.5 µg/mL,–
"O=C(N/N=C/c1ccc2cccc(NS(=O)(=O)c3ccc(C(F)(F)F)cc3)c2n1)c1cccnc1 [ZDR121, (E)-N-(2-((2-Nicotnoylhydrazineylidene)methyl)quinolin-8-yl)-4-(trifluoromethyl)benzenesulfonamide]",–,–,–,–,–,–,–,–,> 256 µg/mL,> 256 µg/mL,64 µg/mL,256 µg/mL,256 µg/mL,32 µg/mL,16 µg/mL,16 µg/mL,> 256 µg/mL,> 256 µg/mL,32 µg/mL,2 µg/mL,–
"O=S(=O)(Nc1cccc2ccc(CNCCCN3CCCCC3)nc12)c1ccc(C(F)(F)F)cc1 [ZDR115, N-(2-(((3-(Piperidin-1-yl)propyl)amino)methyl)quinolin-8-yl)-4-(trifluoromethyl)benzenesulfonamide di-trifluoroacetate]",16 µg/mL,16 µg/mL,16 µg/mL,16 µg/mL,8 µg/mL,4 µg/mL,16 µg/mL,16 µg/mL,–,–,–,–,–,–,–,–,–,–,–,–,MIC (E. coli ATCC 10596; [13]): 16 µg/mL; MIC (E. coli ATCC 10596; [14]): 16 µg/mL; MIC (S. uberis ATCC 19436 [4]; [15]): 4 µg/mL; MIC (S. uberis ATCC 19436 [4]; [16]): 2 µg/mL
"N=C(N)NCCNCc1ccc2cccc(NS(=O)(=O)c3ccc(C(F)(F)F)cc3)c2n1 [ZDR143, N-(2-(((2-Guanidinoethyl)amino)methyl)quinolin-8-yl)-4-(trifluoromethyl)benzenesulfonamide di-trifluoroacetate]",32 µg/mL,32 µg/mL,16 µg/mL,16 µg/mL,8 µg/mL,8 µg/mL,8 µg/mL,8 µg/mL,–,–,–,–,–,–,–,–,–,–,–,–,MIC (E. coli ATCC 10596; [13]): 16 µg/mL; MIC (E. coli ATCC 10596; [14]): 16 µg/mL; MIC (S. uberis ATCC 19436 [4]; [15]): 8 µg/mL; MIC (S. uberis ATCC 19436 [4]; [16]): 4 µg/mL
"CN1CCN(CCNCc2ccc3cccc(NS(=O)(=O)c4ccc(C(F)(F)F)cc4)c3n2)CC1 [ZDR114, N-(2-(((2-(4-Methylpiperazin-1-yl)ethyl)amino)methyl)quinolin-8-yl)-4-(trifluoromethyl)benzenesulfonamide di-trifluoroacetate]",> 256 µg/mL,64 µg/mL,128 µg/mL,64 µg/mL,32 µg/mL,4 µg/mL,64 µg/mL,64 µg/mL,–,–,–,–,–,–,–,–,–,–,–,–,MIC (E. coli ATCC 10596; [13]): 64 µg/mL; MIC (E. coli ATCC 10596; [14]): 64 µg/mL; MIC (S. uberis ATCC 19436 [4]; [15]): 32 µg/mL; MIC (S. uberis ATCC 19436 [4]; [16]): 4 µg/mL
"CN(C)Cc1ccc2cccc(NS(=O)(=O)c3ccc(Cl)cc3Cl)c2n1 [ZDR335, 2,4-Dichloro-N-(2-((dimethylamino)methyl)quinolin-8-yl)benzenesulfonamide]",–,–,–,–,–,–,–,–,> 256 µg/mL,> 256 µg/mL,> 256 µg/mL,> 256 µg/mL,64 µg/mL,2 µg/mL,32 µg/mL,8 µg/mL,> 256 µg/mL,> 256 µg/mL,64 µg/mL,0.0312 µg/mL,–
"O=S(=O)(Nc1cccc2ccc(/C=N/O)nc12)c1ccc(C(F)(F)F)cc1 [ZDR125, (E)-N-(2-((Hydroxyimino)methyl)quinolin-8-yl)-4-(trifluoromethyl)benzenesulfonamide]",–,–,–,–,–,–,–,–,> 256 µg/mL,> 256 µg/mL,> 256 µg/mL,> 256 µg/mL,8 µg/mL,0.5 µg/mL,4 µg/mL,4 µg/mL,> 256 µg/mL,> 256 µg/mL,8 µg/mL,0.125 µg/mL,–
"O=[N+]([O-])c1ccc(O)c(NCc2ccc3cccc(NS(=O)(=O)c4ccc(C(F)(F)F)cc4)c3n2)c1 [ZDR170, N-(2-(((2-Hydroxy-5-nitrophenyl)amino)methyl)quinolin-8-yl)-4-(trifluoromethyl)benzenesulfonamide]",–,–,–,–,–,–,–,–,> 256 µg/mL,> 256 µg/mL,128 µg/mL,128 µg/mL,16 µg/mL,2 µg/mL,8 µg/mL,4 µg/mL,256 µg/mL,256 µg/mL,8 µg/mL,1 µg/mL,–
"CN1CCN(CCCNCc2ccc3cccc(NS(=O)(=O)c4ccc(C(F)(F)F)cc4)c3n2)CC1 [ZDR117, N-(2-(((3-(4-Methylpiperazin-1-yl)propyl)amino)methyl)quinolin-8-yl)-4-(trifluoromethyl)benzenesulfonamide di-trifluoroacetate]",256 µg/mL,64 µg/mL,64 µg/mL,64 µg/mL,16 µg/mL,4 µg/mL,64 µg/mL,64 µg/mL,–,–,–,–,–,–,–,–,–,–,–,–,MIC (E. coli ATCC 10596; [13]): 128 µg/mL; MIC (E. coli ATCC 10596; [14]): 32 µg/mL; MIC (S. uberis ATCC 19436 [4]; [15]): 16 µg/mL; MIC (S. uberis ATCC 19436 [4]; [16]): 4 µg/mL
"O=S(=O)(Nc1cccc2ccc(CNC(CO)CO)nc12)c1ccc(C(F)(F)F)cc1 [ZDR092, N-(2-(((1,3-Dihydroxypropan-2-yl)amino)methyl)quinolin-8-yl)-4-(trifluoromethyl)benzenesulfonamide]",–,–,–,–,–,–,–,–,256 µg/mL,> 256 µg/mL,256 µg/mL,32 µg/mL,64 µg/mL,8 µg/mL,32 µg/mL,32 µg/mL,> 256 µg/mL,> 256 µg/mL,64 µg/mL,16 µg/mL,–
